Experimental data taken from US8524782B2, “Key intermediate for the preparation of Stilbenes, solid forms of Pterostilbene, and methods for making the same” (Laurus Labs Private Limited, priority 2008, dated 2013).
Several values for one entry are separate records, joined by “and”; a condition that tells them apart may be missing. Identical values can stand only once.

Experiments:
[1] = Enthalpy (heat) of fusion from DSC data; format: physicochemical; settings: for Heat of fusion (ΔH), single analyses / Heat of fusion (ΔH), average: DSC 50° C./min; for Heat of fusion (ΔH), average: average of three
Experimental: In Table 4, for Form I, the 26.4 kJ/mol value for the enthalpy of fusion was calculated from a single 10° C./min pattern whereas the 25.6 kJ/mol value was calculated as an average from three 50° C./min patterns. DSC results for Form III indicated a melt onset at 76° C., while HSM results indicated it was 81° C. Material decomposition was observed upon heating above approximately 170° C. The minor weight loss observed up to 150° C. was attributed to loss of residual solvent. FIG. 1 is a DSC stack plot for Forms I-V of Pterostilbene. Differential Scanning Calorimetry (DSC) analyses were performed using a TA Instruments (New Castle, Del.) Q2000 differential scanning calorimeter, equipped with a refrigerated cooling system (RCS). Temperature calibration was performed using NIST traceable indium metal. The sample was placed into an aluminum DSC pan, and the weight was accurately recorded. The pan was covered with a lid perforated with a laser pinhole, and the lid was hermetically sealed. A weighed, crimped aluminum pan was placed on the reference side of the cell. The sample cell was equilibrated at sub-ambient temperature and heated under a nitrogen purge at a rate of 10° C./minute. Higher and lower heating rates were also investigated (from 1 to 300° C./min). Alternatively, data were obtained using a modulation amplitude of +/−0.8° C. and a 60 second period with an underlying heating rate of 2° C./min from −50 to 150° C. The reported glass transition temperatures are obtained from the inflection of the step change in the reversible heat flow versus temperature curve. Thermodynamic stability relationships of various forms of Pterostilbene were studied by calculating the heat of fusion for each form (from DSC data, see table 4) and through slurry interconversion experiments in toluene. Heat of fusion (ΔH) for Form I was determined (from […] DSC data) to be approximately 100 J/g or 25.6 kJ/mol. […] Heat of fusion for Form II was determined (from 10° C./min DSC data) to be approximately 92 J/g or 23.6 kJ/mol. […] Heat of fusion for Form III was estimated (from 50° C./min DSC data) to be approximately 75 J/g or 19.2 kJ/mol.

[2] = Thermogravimetric (TG) analysis; format: physicochemical; settings: TGA, up to 150° C., attributed to residual solvent
Experimental: In Table 4, for Form I, the 26.4 kJ/mol value for the enthalpy of fusion was calculated from a single 10° C./min pattern whereas the 25.6 kJ/mol value was calculated as an average from three 50° C./min patterns. DSC results for Form III indicated a melt onset at 76° C., while HSM results indicated it was 81° C. Material decomposition was observed upon heating above approximately 170° C. The minor weight loss observed up to 150° C. was attributed to loss of residual solvent. FIG. 1 is a DSC stack plot for Forms I-V of Pterostilbene.
Thermogravimetric (TG) analyses were performed using a TA Instruments Q5000 IR thermogravimetric analyzer. Temperature calibration was performed using nickel and Alumel. Each sample was placed in an aluminum pan. The pan was hermetically sealed with a lid that was opened using a punching mechanism just before being inserted into the TG furnace. The furnace was heated under nitrogen at a rate of 10° C./minute.

[3] = Water vapor adsorption/desorption (WVS); format: physicochemical; settings: for Sorption (5-95-5% RH): adsorption 5 to 95% RH; for Desorption (5-95-5% RH): desorption 95 to 5% RH
Experimental: Water vapor adsorption/desorption (WVS) data were collected on a VTI SGA-100 Vapor Sorption Analyzer. NaCl and PVP were used as calibration standards. Samples were not dried prior to analysis. Adsorption and desorption data were collected over a range from 5 to 95% RH at 10% RH increments under a nitrogen purge. The equilibrium criterion used for analysis was less than 0.0100% weight change in 5 minutes with a maximum equilibration time of 3 hours if the weight criterion was not met. Data were not corrected for the initial moisture content of the samples.

[4] = Intrinsic dissolution rate in water; format: physicochemical
Experimental: The polymorphs of Pterostilbene described herein can also be characterized by their respective dissolution rates. […] (open symbols) and 37° C. (filled symbols). […] UV-VIS spectrophotometry: samples were analyzed using a SpectraMax M2 Microplate Reader. Wavelength calibration and photometric accuracy was performed using the SpectraMax […] software as an internal calibration of the instrument. The instrument was blanked with an empty quartz glass plate. Samples were analyzed in the UV range at ambient temperature in the wells of a 96-well quartz plate. The absorbance spectra of water was collected and subtracted from the spectra of the drug solutions to calculate concentrations. Samples were performed in duplicate and absorbance data was averaged. The standard curve was determined based on absorbance at 310 nm.

[5] = Stress conditions, stability of Pterostilbene Form II; format: physicochemical
Text: Stress conditions were employed to evaluate the stability of Pterostilbene Form II. […] Ambient and elevated temperature water slurry experiments starting with Form II material were set up in an effort to produce a hydrate of Pterostilbene.

[6] = Slurry interconversion experiments in toluene (XRPD of recovered solids); format: physicochemical; settings: from enthalpy of fusion, melting point and slurry interconversion in toluene
Experimental: Thermodynamic stability relationships of known forms of Pterostilbene were studied by calculating the enthalpy of fusion for each form (from DSC data, Table 4) and through slurry interconversion experiments in toluene in Table 1.
Saturated solutions of Pterostilbene were prepared at ambient temperature in toluene. The solutions were filtered and seeds of each form were added. The samples were agitated for days and the solids recovered by vacuum filtration. The solids were collected and allowed to dry under ambient conditions.

[7] = cited from earlier work
[8] = cited from earlier work; remark: listed apart in the source
[9] = Physical stability of amorphous Pterostilbene under ambient conditions; format: physicochemical
Text: FIG. 9 is the x-ray diffraction pattern of x-ray amorphous Pterostilbene. By use the term “x-ray amorphous” what is meant is a material whose powder x-ray powder diffraction pattern is consistent with an amorphous “halo” as that term is understood in the art. By inspection, one of ordinary skill in the art would recognize that the pattern in FIG. 9 does represents a material without any significant crystallinity. However, the material may be nanocrystalline or some other disordered solid. The glass transition temperature of amorphous Pterostilbene was experimentally determined (by modulated DSC) to be approximately 4° C.

[10] = DSC 50° C./min (average of three for Forms I and II)

## COc1cc(/C=C/c2ccc(O)cc2)cc(OC)c1 [Form III]
[1]
  Heat of fusion (ΔH), single analyses: approximately 75 J/g
[1]; [10]
  Enthalpy of fusion: ~4.59 kcal/mol
[1]; DSC 50° C./min (average of three for Forms I and II), listed as III
  Enthalpy of fusion: 4.59 kcal/mol
[2]
  % weight loss (at 150° C.): 0.2%
[3]
  Sorption (5-95-5% RH): 0.6 weight %
  Desorption (5-95-5% RH): 0.5 weight %

## COc1cc(/C=C/c2ccc(O)cc2)cc(OC)c1 [Form II]
[1]; DSC 10° C./min
  Enthalpy of fusion: ~5.64 kcal/mol
  Heat of fusion (ΔH): approximately 92 J/g
[1]; DSC 10° C./min, listed as II
  Enthalpy of fusion: 5.64 kcal/mol
[1]
  Heat of fusion (ΔH), single analyses: 100 J/g and 91 J/g and 92 J/g
  Heat of fusion (ΔH), average: 94 J/g
[1]; [10]
  Enthalpy of fusion: 5.78 kcal/mol
[1]; DSC 50° C./min (average of three for Forms I and II), listed as II
  Enthalpy of fusion: 5.78 kcal/mol
[2]
  % weight loss (at 150° C.): 0.2%
[3]
  Sorption (5-95-5% RH): 0.2/0.2 weight %
  Desorption (5-95-5% RH): 0.2/0.2 weight %
[4]; 25° C.
  Intrinsic dissolution rate: 0.90 ± 0.03 μg/cm^−2/min
[4]; 37° C.
  Intrinsic dissolution rate: 2.35 ± 0.08 μg/cm^−2/min
[5]
  Organic vapor stress: structurally unchanged
[5]; 80° C. for 3 days
  Heat stress: conversion to Form I
[5]; ambient (air, but not light) exposure, 34 days
  Chemical stability on ambient exposure: chemically unchanged
[5]; ambient (air, but not light) exposure, 70 days
  Structural stability on ambient exposure: structurally unchanged
[5]; ambient and elevated temperature water slurry
  Hydrate formation in water slurry: No hydrate was observed
[5]; ambient and elevated temperatures
  Moderate humidity stress: did not result in deliquescence
[5]; ambient temperature
  Resulting material of water slurry: Form II
[5]; elevated temperature
  Resulting material of water slurry: Form I
[6]
  Thermodynamic stability relationship of forms: thermodynamically favored compared to Forms III-V

## COc1cc(/C=C/c2ccc(O)cc2)cc(OC)c1 [Form IV]
[2]; listed as IV
  % weight loss (at 150° C.): 0.2%
[3]; listed as IV
  Sorption (5-95-5% RH): 0.5/0.5 weight %
  Desorption (5-95-5% RH): 0.5/0.5 weight %

## COc1cc(/C=C/c2ccc(O)cc2)cc(OC)c1 [Form I]
[1]; DSC 10° C./min
  Enthalpy of fusion: ~6.12 kcal/mol and 6.31 kcal/mol
  Heat of fusion (ΔH): approximately 100 J/g
[1]; DSC 10° C./min, listed as I
  Enthalpy of fusion: 6.12 kcal/mol
[1]
  Heat of fusion (ΔH), single analyses: 106 J/g and 102 J/g and 101 J/g
  Heat of fusion (ΔH), average: 103 J/g
[1]; [10]
  Enthalpy of fusion: 6.31 kcal/mol and 6.12 kcal/mol
[1]; DSC 50° C./min (average of three for Forms I and II), listed as I
  Enthalpy of fusion: 6.31 kcal/mol
[2]
  % weight loss (at 150° C.): 0.5%
[3]
  Sorption (5-95-5% RH): 0.2/0.2 weight %
  Desorption (5-95-5% RH): 0.2/0.2 weight %
[4]; 25° C.
  Intrinsic dissolution rate: 0.83 ± 0.06 μg/cm^−2/min
[4]; 37° C.
  Intrinsic dissolution rate: 2.05 ± 0.03 μg/cm^−2/min
[6]
  Thermodynamic stability relationship of forms: thermodynamically stable crystal form

## COc1cc(/C=C/c2ccc(O)cc2)cc(OC)c1 [Form V]
[2]; listed as V
  % weight loss (at 150° C.): 0.4%
[3]; listed as V
  Sorption (5-95-5% RH): 0.8 weight %
  Desorption (5-95-5% RH): 0.5 weight %

## COc1cc(/C=C/c2ccc(O)cc2)cc(OC)c1 [Pterostilbene, trans-3,5-dimethoxy-4′-hydroxystilbene]
[7]
  Solubility in water: poor
[8]
  Bioavailability: poor

## COc1cc(/C=C/c2ccc(O)cc2)cc(OC)c1 [amorphous Pterostilbene]
[9]
  Physical stability of the amorphous form: rapidly crystallized
